Here are results for five compounds from patent US8497271B2, “Modulators of G protein-coupled receptor 88” (Bristol-Myers Squibb Company, priority 2009, dated 2013).

Where two headings read alike, the source gives them in different places.

In this experiment the target is G protein-coupled receptor 88 (Homo sapiens, UniProt Q9GZN0). The experiment is described as follows: EC50 of select compounds as GPR88 modulators (Table 2; GTPγS assay and cAMP HTRF assay are both described, and the one used is not stated). Format: cell-based. As to conditions: read-out: Range (EC50). Here is the method: 96 well GTPγS assay plates were purchased from Perkin Elmer. Wheat Germ Agglutinin PVT SPA beads and ^35S-GTPγS were purchased from Amersham GDP, GTPγS and all buffer reagents were from Sigma. 384 well white NBS plates were purchased from corning. Pertussis toxin was purchased from Calbiochem. All cell culture reagents were purchased from Invitrogen. Forskolin was purchased from Sigma. The cAMP HTRF kit was purchased fron Cisbio International.
The GTPγS assay buffer consisted of 10 mM MgCl2, 180 mM NaCl, 200 uM GDP, 0.167 mg/ml DTT, 1 mM EGTA and 20 mM HEPES pH7.4. This buffer was used for dilution of membranes, beads, and ^35S GTPγS components. To each well of the 96 well assay plate 48 ul assay buffer, 2 ul of 100× compound, 50 ul membrane solution (0.2 ug/ul), 50 ul ^35S GTPγS solution (0.8 nM) and 50 ul of SPA beads (10 mg/ml). Non-specific binding was determined by the addition of cold GTPγS to control wells. The plates were sealed with clear sealing tape and incubated at room temperature for 1 hour. GTPγS activity was detected using a Wallac Micro-Beta Trilux liquid scintillation counter. Non-specific binding was determined using 10 uM cold GTPγS.
The cAMP HTRF assay is modified from the Cisbio International kit procedure 62AM4PEJ. Assay plates were prepared by stamping 0.1 ul of 100× compound stock solutions diluted in DMSO or DMSO alone into 384 well NBS plates. The cAMP HTRF assay was performed using cells in suspension. The cAMP HTRF assay buffer consisted of Hank's Balanced Salt Solution (HBSS), 2 mM CaCl2, 5 mM MgCl2, 20 mM HEPES and 1 mM 3-isobutyl-1-methylxanthine (IBMX) (added fresh at the time of assay). For pertussis toxin treatment pertussis toxin (100 ng/ml) was added to culture medium for 16 hours prior to assay. Confluent cells were disrupted with cell dissociation buffer count cells then centrifuged at 1000×g for minutes. The cell pellet was resuspended in assay buffer alone for basal cAMP measurements or with 0.75 uM forskolin (added immediately prior to addition to wells) for addition to all other wells. Using a Multidrop 384 (Lab systems) 10 ul of cell suspension was added to each well containing compound or DMSO. The plates were incubated at room temperature for 30 minutes covered. During this time the cAMP standard curve was prepared as per manufacturer's instruction. At the end of the incubation 10 ul of anti-cAMP cryptate and 10 ul cAMP-XL, diluted in manufacturer's lysis buffer, were added to each well. The plated were incubated at room temperature for 60 minutes covered then read on an Envision plate reader (Perkin Elmer) and the 665 nm/620 nm fluorescence ratio determined Fluorescence ratio values were converted to molar cAMP concentrations from the standard curve using the GraphPad Prism program.
A general note: Time-resolved FRET reads energy transfer from a long-lived donor to a nearby acceptor.

Sequence of G protein-coupled receptor 88 (Q9GZN0 whole entry, species assumed): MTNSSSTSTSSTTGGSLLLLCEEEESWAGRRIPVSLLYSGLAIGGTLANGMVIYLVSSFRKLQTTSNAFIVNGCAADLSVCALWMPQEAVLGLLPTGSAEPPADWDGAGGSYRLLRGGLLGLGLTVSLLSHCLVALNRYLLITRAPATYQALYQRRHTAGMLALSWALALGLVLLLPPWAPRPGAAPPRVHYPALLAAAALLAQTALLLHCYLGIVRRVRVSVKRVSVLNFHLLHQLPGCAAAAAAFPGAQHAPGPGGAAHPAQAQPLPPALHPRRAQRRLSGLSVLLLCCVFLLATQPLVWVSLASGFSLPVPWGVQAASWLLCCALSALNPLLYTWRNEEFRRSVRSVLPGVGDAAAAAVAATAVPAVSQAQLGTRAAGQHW

As for `CC[C@H](C)COc1ccc([C@H](CO)NC(=O)[C@H]2C[C@@H]2c2cccs2)cc1` [Example 6, (1S,2S)-2-Thiophen-2-yl-cyclopropanecarboxylic acid {(R)-2-hydroxy-1-[4-((S)-2-methyl-butoxy)-phenyl]-ethyl}-amide], the EC50 (numeric value printed) is 0.124 µM.

In the case of `Cc1ccc(-c2ccc([C@H](CO)NC(=O)C3CC3c3cccs3)cc2)cc1` (stereo in doubt) [Example 5, (1S,2S)-2-Thiophen-2-yl-cyclopropanecarboxylic acid [(R)-2-hydroxy-1-(4′-methyl-biphenyl-4-yl)-ethyl]-amide], the EC50 (numeric value printed) came to 0.081 µM.

In the case of `CCCC(C)COc1ccc([C@H](CO)NC(=O)[C@H]2C[C@@H]2c2cccs2)cc1` (stereo partly drawn) [Example 15, (1S,2S)-2-Thiophen-2-yl-cyclopropanecarboxylic acid {(R)-2-hydroxy-1-[4-(2-methyl-pentyloxy)-phenyl]-ethyl}-amide], the EC50 (numeric value printed) was determined as 0.074 µM.

With `CCC(CC)COc1ccc([C@H](CO)NC(=O)[C@H]2C[C@@H]2c2ccccc2)c(OC)c1` [Example 3, (1S,2S)-2-Phenyl-cyclopropanecarboxylic acid {(R)-1-[4-(2-ethyl-butoxy)-2-methoxy-phenyl]-2-hydroxy-ethyl}-amide], the EC50 (class symbol X) was 0.062 to 0.13 µM.

With `COc1cc(-c2ccc(C)cc2)ccc1[C@H](CO)NC(=O)[C@H]1C[C@@H]1c1cccs1` [Example 12, (1S,2S)-2-Thiophen-2-yl-cyclopropanecarboxylic acid [(R)-2-hydroxy-1-(3-methoxy-4′-methyl-biphenyl-4-yl)-ethyl]-amide], the EC50 (class symbol X) lay in the range of 0.062 to 0.13 µM.

The term EC50 denotes the concentration at which the effect is half-maximal.
